Laboratory results: publication PMC7552967, “Anti-Melanoma Activities of Artemisone and Prenylated Amino-Artemisinins in Combination With Known Anticancer Drugs” (Frontiers in Pharmacology, 2020)
Each block holds one compound with its values, some of them ahead of it.

Columns and labels:
A375 melanoma cells [1] = test: MTT cell viability assay, A375; format: cell-based, human; settings: for IC50: Homo sapiens, A-375, MTT, 24 h, combinations 1:1, mean ± SD; for Therapeutic index (TI): IC50 of HaCat cells/IC50 of A375 cells
Source text: (§1) The human cell lines TK10 (human kidney adenocarcinoma), UACC62 (human melanoma) and MCF7 (human breast adenocarcinoma) were obtained from the National Cancer Institute (NCI) as part of a panel widely studied for drug screening and molecular target identification. […] The nontumorigenic human immortalized keratinocyte (HaCaT) cells were a kind donation by the School of Anatomical Sciences, Faculty of Health Sciences, University of the Witwatersrand, South Africa. […] All reagents were of analytical grade and were obtained from Merck (Darmstadt, Germany) unless stated otherwise. Cells were cultured in Dulbecco’s modified essential medium (DMEM; Hyclone, GE healthcare, South Logan, UT, USA) containing 10% fetal bovine serum (FBS), 1% penicillin/streptomycin, 1% 200 mM L-Glutamine and 1% nonessential amino acids (Lonza, Basel, Switzerland) at 37°C in a humidified atmosphere of 5% CO2. Stock solutions of the compounds were prepared in dimethyl sulfoxide (DMSO). All subsequent dilutions were prepared in serum-free DMEM and vehicle controls were included in all experiments
(§2) The growth inhibitory effects of the compounds were tested in the 3-cell line panel consisting of TK10 (renal), UACC62 (melanoma) and MCF7 (breast) cancer cells by Sulforhodamine B (SRB) assay. […] Compounds prepared in DMSO were tested at 0.01–100 µM serial dilutions to establish initial inhibitory concentrations. […] After 24 h exposure to compounds, growth medium was removed, cells rinsed twice with 1 ml of phosphate buffered saline (PBS) and 100 µl fresh serum-free medium containing 5 mg/ml MTT solution was added MTT solution was prepared fresh for each analysis). Cells were then incubated for 4 h at 37°C, after which the MTT was removed and substituted with 100 µl dimethyl sulfoxide (DMSO) to dissolve the formazan crystals for an h at 37°C. After incubation, cell viability was determined using a microplate reader (BioTek®, Vermont, USA) at an excitation wavelength of 560 nm and emission wavelength of 630 nm with DMSO measured as a blank. Cell viability was expressed as a percentage relative to the untreated control, which is assumed to be 100% viable. For a positive control, cells were treated with 0.01% Triton-X 100 (Sigma-Aldrich, St Louis, MO, USA) for a period of 4 h. Using the MTT assay data, IC50 values were calculated using GraphPad Prism 8. Data were normalized to the positive (alleged to be 0% viable) and negative controls (presumed to be 100% viable), followed by the log-transformation of the concentration values. […] A crude therapeutic index (fold decrease in IC50 value) was calculated as the IC50 of the noncancerous cell-line/IC50 of the cancerous cell line. […] Drug interactions were evaluated for synergism, additivity or antagonism using multiple drug effect analysis, based on the median-principle. Cells were treated with the drug combinations for 24 h and analyzed. The CompuSyn (ComboSyn, Inc. NJ, USA) software package was used to generate the median-effect plots and combination index plots. […] All experiments were performed at least in triplicate and repeated independently.
(§3) Next, the quantitative colorimetric MTT assay was used to determine in vitro cell viability with A375 (melanoma) and HaCat (nonmalignant keratinocyte) cells. […] The IC50 was used to determine a crude therapeutic index (fold increase or decline in IC50).

[2] = tested on: HaCat normal keratinocytes; test: MTT cell viability assay, HaCat; format: cell-based, human; settings: Homo sapiens, HaCaT, 24 h, combinations 1:1, mean ± SD, read-out: HaCat IC50
Source text: as §1, §2, §3

[3] = tested on: HaCat normal keratinocytes; test: LDH release membrane integrity assay, HaCat; settings: compounds at their IC50 concentrations, 24 h; combinations 1:1; relative to maximum release
Source text: (§4) In order to determine cell membrane integrity, the CytoTox-ONE™ Homogeneous Membrane Integrity Assay (Promega, Madison, WO, USA) was employed. This fluorometric assay measures the release of LDH from cells with damaged cell membranes. […] The manufacturer’s instructions were followed to determine the fluorescence at an excitation wavelength of 560 nm and an emission wavelength of 590 nm. In order to calculate the percentage cytotoxicity, the average fluorescent values of the background medium were subtracted from all average fluorescent values of the experimental samples and the positive control. Cytotoxicity is expressed as a percentage relative to the positive control, which is assumed to be responsible for 100% LDH release. The fold increase in LDH release was taken as the indication of the selectivity toward melanoma cell membranes, calculated as the […]. All experiments were performed at least in triplicate and independently repeated. Statistical significant differences were calculated with one-way ANOVA.
(§5) Results are expressed relative to the untreated control and the maximum release sample, which was set as having 0% and 100% LDH release respectively. The LDH released from the nonmalignant HaCat cells and the A375 melanoma cells was then used to deduce the selectivity of the compounds against melanoma cell membranes.

A375 melanoma cells [4] = test: LDH release membrane integrity assay, A375; format: cell-based, human; settings: for LDH release, result in words: IC50 concentrations, 24 h (Table 3, Figure 6C); for A375 (% LDH release): compounds at their IC50 concentrations, 24 h, combinations 1:1, relative to maximum release; for Fold increase in LDH release: selectivity toward melanoma cell membranes, A375 vs HaCat
Source text: as §4, §5

IC50 (A375 melanoma cells [1]): 150 ± 3.61 µM | HaCat (% LDH release) [3]: 18 ± 0.84%
SMILES: C[C@@H]1CC[C@H]2[C@@H](C)C(=O)O[C@@H]3O[C@@]4(C)CC[C@@H]1[C@]32OO4 [Artemisinin 2, artemisinin]
Therapeutic index (TI) (A375 melanoma cells [1]): 2.5 | CC50 [2]: 381 ± 5.36 µM | LDH release, result in words (A375 melanoma cells [4]): did not significantly increase the release of LDH | A375 (% LDH release) (A375 melanoma cells [4]): 24 ± 0.96% | Fold increase in LDH release (A375 melanoma cells [4]): 1.3

IC50 (A375 melanoma cells [1]): 95.7 ± 2.31 µM | HaCat (% LDH release) [3]: 19 ± 0.79%
SMILES: C[C@H]1[C@H](N2CCS(=O)(=O)CC2)O[C@@H]2O[C@@]3(C)CC[C@H]4[C@H](C)CC[C@@H]1[C@@]24OO3 [Artemisone 4, artemisone]
Therapeutic index (TI) (A375 melanoma cells [1]): 2.8 | CC50 [2]: 268.8 ± 1.97 µM | LDH release, result in words (A375 melanoma cells [4]): did not significantly increase the release of LDH | A375 (% LDH release) (A375 melanoma cells [4]): 27 ± 0.81% | Fold increase in LDH release (A375 melanoma cells [4]): 1.4

SMILES: CC(C)=CCC/C(C)=C/CC/C(C)=C/CN1CCN([C@@H]2O[C@@H]3O[C@@]4(C)CC[C@H]5[C@H](C)CC[C@@H]([C@H]2C)[C@@]35OO4)CC1 [Farnesylpiperazine-DHA 7, farnesylpiperazine-DHA]
IC50 (A375 melanoma cells [1]): 32.6 ± 1.08 µM | Therapeutic index (TI) (A375 melanoma cells [1]): 2.1 | CC50 [2]: 70.6 ± 1.07 µM | HaCat (% LDH release) [3]: 18 ± 0.67% | A375 (% LDH release) (A375 melanoma cells [4]): 57 ± 1.21% | Fold increase in LDH release (A375 melanoma cells [4]): 3.1

SMILES: CC(C)=CCC/C(C)=C/CN1CCN([C@@H]2O[C@@H]3O[C@@]4(C)CC[C@H]5[C@H](C)CC[C@@H]([C@H]2C)[C@@]35OO4)CC1 [Geranylpiperazine-DHA 6, geranylpiperazine-DHA]
IC50 (A375 melanoma cells [1]): 46.9 ± 0.89 µM | Therapeutic index (TI) (A375 melanoma cells [1]): 2.2 | CC50 [2]: 106 ± 3.99 µM | HaCat (% LDH release) [3]: 17 ± 0.95% | A375 (% LDH release) (A375 melanoma cells [4]): 68 ± 0.91% | Fold increase in LDH release (A375 melanoma cells [4]): 4.0
